# Data from patent US20250376466A1, “ESTER COMPOUNDS AND USE THEREOF” (NANJING REJU THERAPEUTICS, CO., LTD., priority 2022, published 2025).
# Key:
# [1] = system: normal and senescent A549 cells; test: Senescent cell clearance index (senolytic index); type: cell-based, human; conditions: higher index = greater specificity
# Protocol: In this example, human non-small cell lung cancer cell line (A549 cells), human embryonic lung fibroblast cell line (IMR90 cells), human retinal pigment epithelial cells (RPE cells), mouse chondrocytes, and mouse skin fibroblasts were selected. The cells above were induced to obtain senescent cells by etoposide (10 μM). The effect of the target compounds RZ001-RZ006 and RZ201 on the viability of normal and senescent cells above was detected, thereby evaluating the specific killing effect of the prodrugs RZ001-RZ006 and RZ201 on senescent cells above.
# Briefly, senescent and normal cells above were selected and plated separately (96-well plates). After adding the compounds RZ001-RZ006 and RZ201 (concentration: 1 μM) for 72 hours, CellTiter-Glo® Luminescent Cell Viability Assay Kit (Promega) was used to detect cell viability, and the results were shown in FIGS. 2A to 2E.
# Furthermore, the senescent cell clearance index (senolytic index) was also calculated for both normal and senescent A549 cells, as shown in Table 4. A higher index indicates greater specificity in eliminating senescent cells and better safety.
# [2] = system: diabetic retinopathy; test: Mouse model of diabetic retinopathy (STZ), Evans blue penetration; type: in vivo; conditions: intravitreal (IVT), 1 μL of 200 μM at 8 and 9 weeks after STZ; Evans blue at 10 weeks; FIG. 4
# Protocol: The efficacy of the compounds of the present disclosure was studied in a mouse model of diabetic retinopathy by multiple administrations of streptozotocin (STZ). C57BL/6J mice at 6 to 7 weeks were weighed and their baseline blood glucose was measured (Sino). STZ (Sigma-Aldrich) was injected intraperitoneally into the mice at 55 mg/Kg for five consecutive days. Age-matched controls were injected with buffer only. Blood glucose was measured again one week after the last STZ injection. 1 μL of the test compound (200 μM, a suspension formulated in 0.015% polysorbate 80, 0.2% sodium phosphate, 0.75% sodium chloride, pH 7.2) was injected intravitreally into the STZ-treated diabetic C57BL/6J mice at 8 and 9 weeks after STZ administration. 10 weeks after STZ treatment, the retinal Evans blue penetration assay was performed.
# [3] = system: wet-age-related macular degeneration (CNV); test: CNV animal model of wet age-related macular degeneration; type: in vivo, mice; conditions: intravitreal (IVT); laser CNV model; FIG. 5
# Protocol: In this example, the efficacy of the compounds of the present disclosure was tested on wet-age-related macular degeneration in a CNV animal model.
# Male mice were administered 0.5% probacaine hydrochloride (Alcon) for local anesthesia, and 1% tropicamide to dilate the pupils of the mice. Laser cauterization was performed using a laser photocoagulator (Novus Varia, LUMENIS) with a slit lamp delivery system. And artificially torn adherent glass coverslips were used as contact lenses. Bleeding spots caused by laser were not included in the statistical data.
# [4] = system: osteoarthritis; test: Osteoarthritis animal model; type: in vivo, mice; conditions: intra-articular injection; FIG. 7
# Protocol: In this example, the efficacy of the compounds of the present disclosure was tested on osteoarthritis in an osteoarthritis animal model.
# The osteoarthritis animal model was constructed by the following steps. The mice were anesthetized with isoflurane, and fixed. The hair on the right hind limb of the mice was shaved and the skin was disinfected with alcohol, and the skin of the joints was cut. Under an optical microscope, the inside of the right knee joint was incised longitudinally with a blade, without cutting the patellar ligament. The patellar ligament was pulled to one side with constant hemostasis by compression with sterile cotton swabs such that the joint cavity was fully exposed. Saline was added dropwise in time to avoid the drying up of the joint cavity. The excess muscle tissue was gently separated with a blunt forceps to expose the meniscus ligament. The anterior cruciate ligament was found in the depth of the joint cavity and cut with micro scissor. Then the wound was disinfected with penicillin solution, the muscle was sutured with sterile needle and thread, and the skin tissue was finally sutured. The efficacy of the drug was determined by intra-articular injection administration. At the endpoint of the test, continued pain threshold of the plantar was detected, and the bone joints were stained with safranin fast green.
# [5] = system: hepatic fibrosis; test: CCl4 mouse model of hepatic fibrosis; type: in vivo, mice; conditions: intraperitoneal (IP) injection twice a week from third week of modelling; FIG. 9
# Protocol: In this example, the efficacy of the compounds of the present disclosure was tested on hepatic fibrosis in an animal model of hepatic fibrosis. Briefly, C57BL/6N mice, male, 7 to 8 weeks old, 24 to 28 g of body weight, were used. The mouse model of hepatic fibrosis was induced by intraperitoneal injection of CCl4 solution at a dosage of 1 mL/kg, with a dosing frequency of 2 times/week, and a modelling cycle of 6 weeks. Dosing via intraperitoneal injection was started from the third week of modelling twice a week. At the end of the test, serum was collected, and liver tissue was taken for Masson staining index assay.
# [6] = system: aging skin; test: Aging skin in naturally aging mouse model; type: in vivo; conditions: skin application twice a week, 6 consecutive weeks; aged female mice (22 months old); FIG. 10
# Protocol: In this example, aged female C57bl/6J mice (22 months old) were used. The drug was administered by skin application at twice a week for 6 consecutive weeks.
# [7] = system: renal fibrosis; test: Renal fibrosis animal model (ureter ligation); type: in vivo, mice; conditions: intraperitoneal (IP) injection from 2nd week of modelling; FIG. 11
# Protocol: In this example, the efficacy of the compound of the present disclosure was tested on renal fibrosis in an animal model of renal fibrosis. Briefly, C57BL/6J mice, male, 7 to 8 weeks old, were used. The mice were anaesthetized, made to lie supine on a foam board, and disinfected with iodophor, and a longitudinal incision was made in the skin in the middle of the lower abdomen to locate the white line of the abdominal muscle, where the abdominal muscle, fascia and peritoneal layer were dissected. After exposing the surgical field, the kidneys were exposed by pushing the stomach and mesentery of the mice to the right side with a gauze soaked with saline. The model of renal fibrosis was constructed by locating the transparent ureter from the renal pelvis along the renal artery, separating the left ureter, ligating the upper ⅓ of the left ureter, suturing the incision layer by layer, and finally disinfecting with iodophor. Dosing via intraperitoneal injection was started from the 2nd week of modelling. At the end of the experiment, the mouse serum was collected and kidney tissues were taken for Masson staining index assay.
SMILES,senescent cell clearance index (Senolytic Index) [1],vascular permeability in both the retinal and choroidal vascular leakage [2],fluorescence intensity indicators [3],pathology scores of safranin fast green staining [4],plantar mechanical pain threshold [4],"pathology scores (liver, Masson staining) [5]",serum alanine aminotransferase (ALT) levels [5],serum aspartate aminotransferase (AST) levels [5],epidermal thickness scores of the skin [6],"pathology (kidney, Masson staining) [7]",serum creatinine (Cr) levels [7],serum urea nitrogen (BUN) levels [7]
Cc1c(-c2ccc(N3CCc4cccc(C(=O)Nc5nc6ccccc6s5)c4C3)nc2C(=O)OCOC(=O)C(C)C)cnn1CC12CC3CC(CC(C3)C1)C2 [RZ001],A (A represents more than 200),improved vascular permeability,statistically significant improvements,statistically significant improvements,statistically significant improvements,statistically significant improvements,statistically significant improvements,statistically significant improvements,statistically significant improvements,statistically significant improvements,statistically significant improvements,statistically significant improvements
Cc1oc(=O)oc1COC(=O)c1nc(N2CCc3cccc(C(=O)Nc4nc5ccccc5s4)c3C2)ccc1-c1cnn(CC23CC4CC(CC(C4)C2)C3)c1C [RZ201],A (A represents more than 200),improved vascular permeability,statistically significant improvements,statistically significant improvements,statistically significant improvements,statistically significant improvements,statistically significant improvements,statistically significant improvements,statistically significant improvements,statistically significant improvements,statistically significant improvements,statistically significant improvements
